Experimental data from the kinase profiling compilation of Christmann-Franck et al. (2016).

Assays:
Experiment in all cases: KINOMEscan competition binding
Conditions in all cases: compound 10.0 µM
[1] = system: KIT (human), P10721 [V559D]
[2] = system: FLT3 (human), P36888 [K663Q]
[3] = system: PIK3CA (human), P42336 [E545K]
[4] = system: ABL1 (human), P00519 [T315I]
[5] = system: ABL1 (human), P00519 [M351T]
[6] = system: EGFR (human), P00533 [G719S]
[7] = system: EIF2AK4 KD2 (human), Q9P2K8 [S808G]
[8] = system: FLT3 (human), P36888 [N841I]
[9] = system: EGFR (human), P00533 [L861Q]
[10] = system: EGFR (human), P00533 [746-750 del]
[11] = system: ABL1 (human), P00519 [Q252H]
[12] = system: FLT3 (human), P36888 [ITD]
[13] = system: ABL1 (human), P00519 [E255K]
[14] = system: KIT (human), P10721 [V559D/T670I]
[15] = system: EGFR (human), P00533 [P753S; 747-752 del]
[16] = system: KIT (human), P10721 [D816V]
[17] = system: PIK3CA (human), P42336 [C420R]
[18] = system: PIK3CA (human), P42336 [E545A]
[19] = system: PIK3CA (human), P42336 [Q546K]
[20] = system: PIK3CA (human), P42336 [H1047Y]
[21] = system: PIK3CA (human), P42336 [I800L]
Chain of PIK3CA (human), P42336 [I800L] (P42336 whole entry I800L, looked up): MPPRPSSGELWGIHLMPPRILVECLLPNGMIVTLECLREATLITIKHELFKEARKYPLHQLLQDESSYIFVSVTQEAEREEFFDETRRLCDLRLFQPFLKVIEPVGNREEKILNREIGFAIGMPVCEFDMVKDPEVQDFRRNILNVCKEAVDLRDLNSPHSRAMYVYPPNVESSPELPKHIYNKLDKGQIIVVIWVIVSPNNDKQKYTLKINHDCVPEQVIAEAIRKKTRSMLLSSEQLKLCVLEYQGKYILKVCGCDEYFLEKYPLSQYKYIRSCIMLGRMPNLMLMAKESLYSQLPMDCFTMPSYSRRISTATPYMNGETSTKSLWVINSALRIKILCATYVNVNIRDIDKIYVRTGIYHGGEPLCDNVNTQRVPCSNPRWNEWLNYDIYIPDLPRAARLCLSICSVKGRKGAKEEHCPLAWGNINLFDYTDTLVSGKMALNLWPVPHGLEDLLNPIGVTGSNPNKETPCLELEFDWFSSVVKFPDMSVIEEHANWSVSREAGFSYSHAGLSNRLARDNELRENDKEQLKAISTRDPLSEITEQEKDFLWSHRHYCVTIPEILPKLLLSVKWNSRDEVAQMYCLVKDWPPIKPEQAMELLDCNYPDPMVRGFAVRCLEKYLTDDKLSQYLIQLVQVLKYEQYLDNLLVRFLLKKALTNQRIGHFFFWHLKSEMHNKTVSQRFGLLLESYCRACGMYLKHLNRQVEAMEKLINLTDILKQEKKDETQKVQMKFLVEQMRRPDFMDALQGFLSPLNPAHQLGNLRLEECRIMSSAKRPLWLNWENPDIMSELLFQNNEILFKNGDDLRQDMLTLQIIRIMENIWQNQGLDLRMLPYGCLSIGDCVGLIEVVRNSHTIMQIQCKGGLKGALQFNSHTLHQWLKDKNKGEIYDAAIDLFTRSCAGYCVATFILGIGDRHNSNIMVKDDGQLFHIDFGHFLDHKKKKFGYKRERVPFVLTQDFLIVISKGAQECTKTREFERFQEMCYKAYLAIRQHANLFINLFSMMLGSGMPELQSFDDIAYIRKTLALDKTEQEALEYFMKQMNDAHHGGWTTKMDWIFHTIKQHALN

Chain of KIT (human), P10721 [V559D] (P10721 whole entry V559D, looked up): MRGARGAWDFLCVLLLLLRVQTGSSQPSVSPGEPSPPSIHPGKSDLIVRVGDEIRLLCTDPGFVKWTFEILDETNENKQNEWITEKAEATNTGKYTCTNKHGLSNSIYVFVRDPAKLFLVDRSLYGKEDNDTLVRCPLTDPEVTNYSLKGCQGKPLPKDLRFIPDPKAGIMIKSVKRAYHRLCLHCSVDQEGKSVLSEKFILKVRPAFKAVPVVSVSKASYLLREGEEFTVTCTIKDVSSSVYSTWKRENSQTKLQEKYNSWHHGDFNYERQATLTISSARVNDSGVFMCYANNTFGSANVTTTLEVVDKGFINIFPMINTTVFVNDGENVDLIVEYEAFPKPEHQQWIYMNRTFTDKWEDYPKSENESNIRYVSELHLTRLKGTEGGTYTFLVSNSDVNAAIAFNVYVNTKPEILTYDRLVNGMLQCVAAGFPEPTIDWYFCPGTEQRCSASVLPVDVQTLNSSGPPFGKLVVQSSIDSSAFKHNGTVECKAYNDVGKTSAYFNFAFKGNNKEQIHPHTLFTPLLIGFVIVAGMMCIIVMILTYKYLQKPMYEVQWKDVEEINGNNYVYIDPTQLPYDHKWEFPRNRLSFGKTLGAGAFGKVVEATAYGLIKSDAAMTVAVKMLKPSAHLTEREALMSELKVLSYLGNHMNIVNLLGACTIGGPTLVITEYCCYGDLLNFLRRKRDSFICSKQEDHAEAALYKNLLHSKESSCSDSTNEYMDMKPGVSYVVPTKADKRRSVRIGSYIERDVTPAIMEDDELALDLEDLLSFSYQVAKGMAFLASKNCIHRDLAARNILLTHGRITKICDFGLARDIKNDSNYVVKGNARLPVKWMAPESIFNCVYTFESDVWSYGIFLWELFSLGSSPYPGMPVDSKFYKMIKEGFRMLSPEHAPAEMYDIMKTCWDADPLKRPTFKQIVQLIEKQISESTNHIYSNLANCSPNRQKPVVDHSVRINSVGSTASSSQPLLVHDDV
Chain of KIT (human), P10721 [V559D/T670I] (P10721 whole entry V559D/T670I, looked up): as the sequence (P10721 whole entry V559D, looked up) above, with T670I counted along it
Chain of PIK3CA (human), P42336 [H1047Y] (P42336 whole entry H1047Y, looked up): as the sequence (P42336 whole entry I800L, looked up) above, with L800I, H1047Y counted along it
Chain of KIT (human), P10721 [D816V] (P10721 whole entry D816V, looked up): as the sequence (P10721 whole entry V559D, looked up) above, with D559V, D816V counted along it
Chain of EIF2AK4 KD2 (human), Q9P2K8 [S808G] (Q9P2K8 whole entry S808G, looked up): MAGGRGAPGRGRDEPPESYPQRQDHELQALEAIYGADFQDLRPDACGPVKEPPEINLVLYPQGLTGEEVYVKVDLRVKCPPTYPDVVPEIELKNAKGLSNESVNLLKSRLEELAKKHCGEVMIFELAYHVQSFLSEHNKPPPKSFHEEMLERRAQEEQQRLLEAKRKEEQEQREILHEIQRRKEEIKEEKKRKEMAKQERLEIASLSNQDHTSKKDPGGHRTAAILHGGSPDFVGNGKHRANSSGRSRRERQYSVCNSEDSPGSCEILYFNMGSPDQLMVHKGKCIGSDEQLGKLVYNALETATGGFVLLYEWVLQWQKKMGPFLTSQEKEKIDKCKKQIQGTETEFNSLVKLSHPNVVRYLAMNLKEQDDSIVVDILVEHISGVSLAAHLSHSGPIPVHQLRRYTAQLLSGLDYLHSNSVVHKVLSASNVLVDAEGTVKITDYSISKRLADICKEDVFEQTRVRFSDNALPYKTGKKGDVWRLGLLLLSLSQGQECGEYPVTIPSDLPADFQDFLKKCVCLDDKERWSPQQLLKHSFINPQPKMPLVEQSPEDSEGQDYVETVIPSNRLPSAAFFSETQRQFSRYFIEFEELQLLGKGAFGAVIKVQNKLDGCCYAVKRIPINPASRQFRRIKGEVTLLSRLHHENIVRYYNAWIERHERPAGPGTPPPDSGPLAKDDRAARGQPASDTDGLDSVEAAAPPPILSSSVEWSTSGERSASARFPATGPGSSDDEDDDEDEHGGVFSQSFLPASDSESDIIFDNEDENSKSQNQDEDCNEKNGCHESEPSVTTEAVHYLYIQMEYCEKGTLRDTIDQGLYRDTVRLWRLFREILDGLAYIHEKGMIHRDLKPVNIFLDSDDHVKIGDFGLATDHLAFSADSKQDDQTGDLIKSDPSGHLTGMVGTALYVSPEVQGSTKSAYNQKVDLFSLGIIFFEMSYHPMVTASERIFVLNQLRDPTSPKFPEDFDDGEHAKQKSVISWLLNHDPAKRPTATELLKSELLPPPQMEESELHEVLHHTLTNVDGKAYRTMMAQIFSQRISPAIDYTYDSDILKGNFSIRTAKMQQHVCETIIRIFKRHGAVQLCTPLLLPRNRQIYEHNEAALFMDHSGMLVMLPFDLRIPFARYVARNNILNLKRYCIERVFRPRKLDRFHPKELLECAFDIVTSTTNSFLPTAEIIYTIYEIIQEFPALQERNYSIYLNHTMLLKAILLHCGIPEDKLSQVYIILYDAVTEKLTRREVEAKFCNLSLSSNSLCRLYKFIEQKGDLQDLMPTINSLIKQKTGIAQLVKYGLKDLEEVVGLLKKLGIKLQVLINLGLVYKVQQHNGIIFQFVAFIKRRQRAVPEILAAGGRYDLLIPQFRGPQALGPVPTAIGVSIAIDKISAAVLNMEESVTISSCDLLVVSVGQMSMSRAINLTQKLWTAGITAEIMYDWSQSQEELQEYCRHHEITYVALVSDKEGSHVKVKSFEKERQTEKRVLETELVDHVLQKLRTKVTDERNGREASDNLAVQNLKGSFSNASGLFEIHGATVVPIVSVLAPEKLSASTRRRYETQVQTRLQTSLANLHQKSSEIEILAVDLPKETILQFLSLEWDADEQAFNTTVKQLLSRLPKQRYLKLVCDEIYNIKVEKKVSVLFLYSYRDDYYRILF
Chain of PIK3CA (human), P42336 [E545K] (P42336 whole entry E545K, looked up): as the sequence (P42336 whole entry I800L, looked up) above, with E545K, L800I counted along it
Chain of PIK3CA (human), P42336 [C420R] (P42336 whole entry C420R, looked up): as the sequence (P42336 whole entry I800L, looked up) above, with C420R, L800I counted along it
Chain of PIK3CA (human), P42336 [E545A] (P42336 whole entry E545A, looked up): as the sequence (P42336 whole entry I800L, looked up) above, with E545A, L800I counted along it
Chain of PIK3CA (human), P42336 [Q546K] (P42336 whole entry Q546K, looked up): as the sequence (P42336 whole entry I800L, looked up) above, with Q546K, L800I counted along it

SMILES	kinase still bound, per cent of control [1] [%]	kinase still bound, per cent of control [2] [%]	kinase still bound, per cent of control [3] [%]	kinase still bound, per cent of control [4] [%]	kinase still bound, per cent of control [5] [%]	kinase still bound, per cent of control [6] [%]	kinase still bound, per cent of control [7] [%]	kinase still bound, per cent of control [8] [%]	kinase still bound, per cent of control [9] [%]	kinase still bound, per cent of control [10] [%]	kinase still bound, per cent of control [11] [%]	kinase still bound, per cent of control [12] [%]	kinase still bound, per cent of control [13] [%]	kinase still bound, per cent of control [14] [%]	kinase still bound, per cent of control [15] [%]	kinase still bound, per cent of control [16] [%]	kinase still bound, per cent of control [17] [%]	kinase still bound, per cent of control [18] [%]	kinase still bound, per cent of control [19] [%]	kinase still bound, per cent of control [20] [%]	other results
Cc1cn(-c2cc(C(=O)Nc3ccc(C)c(NC(=O)c4ccno4)c3)cc(C(F)(F)F)c2)cn1	0.15	100	100	100	11	100	100	100	100	100	13	100	18	100	100	27	100	100	100	100	
CCN(CC)CCCCNc1ncc2c(n1)N(C)C(=O)N(c1c(Cl)c(OC)cc(OC)c1Cl)C2	6.1	100	100	100	100	100	9.5	100	100	100	100	100	100	100	100	100	100	100	100	100	
CCN(CCO)CCCOc1ccc2c(Nc3cc(CC(=O)Nc4cccc(F)c4)[nH]n3)ncnc2c1	0	1	100	0.6	39		62	0.15			32	2.5		0		23	72	31	15	30	kinase still bound, per cent of control [21]: 100%
CS(=O)(=O)N1CCN(Cc2cc3nc(-c4cccc5[nH]ncc45)nc(N4CCOCC4)c3s2)CC1	100	100	0.3	100	100	100	100	100	100	100	100	100	100	100	100	100		0.35	0.35	14	

Second part, led by results:

kinase still bound, per cent of control [1] [%]	kinase still bound, per cent of control [2] [%]	kinase still bound, per cent of control [3] [%]	kinase still bound, per cent of control [4] [%]	kinase still bound, per cent of control [5] [%]	kinase still bound, per cent of control [6] [%]	kinase still bound, per cent of control [7] [%]	kinase still bound, per cent of control [8] [%]	kinase still bound, per cent of control [9] [%]	kinase still bound, per cent of control [10] [%]	kinase still bound, per cent of control [11] [%]	kinase still bound, per cent of control [12] [%]	kinase still bound, per cent of control [13] [%]	kinase still bound, per cent of control [14] [%]	kinase still bound, per cent of control [15] [%]	kinase still bound, per cent of control [16] [%]	kinase still bound, per cent of control [17] [%]	kinase still bound, per cent of control [18] [%]	kinase still bound, per cent of control [19] [%]	kinase still bound, per cent of control [20] [%]	SMILES	other results
18	2.6	4.7	0	7.9	100	100	0.35	100	100	11	0.25	20	22	100	4.5					CNC(=O)c1ccc(Nc2cc(Nc3ccccc3S(=O)(=O)C(C)C)c3cc[nH]c3n2)nc1	
100	100	100	100	100	100	100	100	100	100	100	100	100	100	100	100	100	100	100	100	CCOc1cc(N2CCC(O)CC2)ccc1Nc1ncc2c(n1)N(C)c1ccccc1C(=O)N2C	
100	100	100	100	100	100	100	100	100	100	100	100	100	100	100	100	100	100	100	100	COc1cc(N2CCN(C)CC2)ccc1Nc1ncc2c(n1)N(C)c1ccccc1C(=O)N2C	
